This note sets out measurements from patent US4837305A, “Derivatives of β-adrenergic antagonists” (The Regents of the University of California, priority 1987, dated 1989).

The first test concerns S-49 mouse lymphoma cells. Put plainly: Blocking of isoproterenol-promoted cyclic AMP accumulation in S-49 mouse lymphoma cells. The class given is cell-based. As to conditions: relative to practolol; blocking isoproterenol-promoted cyclic AMP release in S49 cells. From the text: The β-adrenergic antagonist derivatives can be tested for biological and pharmacological activity by an in vitro technique. In this test a measurement is taken of the concentration of the derivative required to block a specified dose of isoproterenol (β-adrenergic agonist) in S-49 mouse lymphoma cells as measured by cyclic AMP accumulation therein. Details of the test utilizing S-49 mouse lymphoma cells is set forth in Coffino et al, In Vitro, 14, #1, 140 (1978). The activities of the β-adrenergic derivatives are expressed as the relative potencies of the unmodified drug, i.e., the β-adrenergic antagonist to that of the derivative drug.
With `CC(=O)Nc1ccc(OCC(O)CNC(C)CCCCC(=O)Nc2ccc(C)cc2)cc1` (stereo not shown) [Compound 17, 6-[3-(4-Acetamidophenoxy)-2-Hydroxypropylamino]-Heptanoic Acid p-Toluide], the “Rel. Potency (potency relative to the parent compound)” value is 2.1 × 10^1.

On to `CC(=O)Nc1ccc(OCC(O)CNC(C)CCCCC(=O)Nc2ccc(C(F)(F)F)cc2)cc1` (stereo not shown) [Compound 18, 6-[3-(4-Acetamidophenoxy)-2-Hydroxypropylamino]-Heptanoic Acid p-Trifluoromethylanilide], for which the “Rel. Potency (potency relative to the parent compound)” value was 6.0.

For `CC(=O)Nc1ccc(OCC(O)CNC(C)CCCCC(=O)Nc2ccc(C[C@H](NC(C)=O)C(=O)NCCCO)cc2)cc1` (stereo partly drawn) [Compound 19, N^α -Acetyl-p-{6-(3-[4-Acetamidophenoxy]-2-Hydroxypropylamino)-Heptanoylamino}-L-Phenylalanyl-3-Hydroxypropylamide], the “Rel. Potency (potency relative to the parent compound)” value was found to be 1.5.

The same test, now with this note: relative to propranolol; blocking isoproterenol-promoted cyclic AMP release in S49 cells.
In the case of `Cc1ccc(NC(=O)CCC(C)NCC(O)COc2cccc3ccccc23)cc1` (stereo not shown) [Compound 7, 4-[3-(1-Naphthyloxy)-2-Hydroxypropylamino]-Pentanoic Acid p-Toluide], the “Rel. Potency (potency relative to the parent compound)” value is 6.8 × 10^-5.

For `Cc1ccc(NC(=O)CCCC(C)NCC(O)COc2cccc3ccccc23)cc1` (stereo not shown) [Compound 8, 5-[3-(1-Naphthyloxy)-2-Hydroxypropylamino]-Hexanoic Acid p-Toluide], the “Rel. Potency (potency relative to the parent compound)” value is 6.8 × 10^-5.

With `Cc1ccc(NC(=O)CCCCC(C)NCC(O)COc2cccc3ccccc23)cc1` (stereo not shown) [Compound 9, 6-[3-(1-Naphthyloxy)-2-Hydroxypropylamino]-Heptanoic Acid p-Toluide], the “Rel. Potency (potency relative to the parent compound)” value was 4.5 × 10^2.

Take `Cc1ccc(NC(=O)CCCCCC(C)NCC(O)COc2cccc3ccccc23)cc1` (stereo not shown) [Compound 10, 7-[3-(1-Naphthyloxy)-2-Hydroxypropylamino]-Octanoic Acid-p-Toluide]: the “Rel. Potency (potency relative to the parent compound)” value is reported as 3.7 × 10^-2.

As for `CC(CCCCC(=O)Nc1ccc(C(F)(F)F)cc1)NCC(O)COc1cccc2ccccc12` (stereo not shown) [Compound 11, 6-[3-(1-Naphthyloxy)-2-Hydroxypropylamino]-Heptanoic Acid p-Trifluoromethylanilide], the “Rel. Potency (potency relative to the parent compound)” value is recorded as 8.75.

For `CC(CCCCC(=O)Nc1ccc(CCC(=O)O)cc1)NCC(O)COc1cccc2ccccc12` (stereo not shown) [Compound 12, 3-{p-(6-[3-(1-Naphthyloxy)-2-Hydroxypropylamino]Heptanoylamino)-Phenyl}-Propionic Acid], the “Rel. Potency (potency relative to the parent compound)” value is 8.8 × 10^-1.

Turning to `CCCCNC(=O)CCc1ccc(NC(=O)CCCCC(C)NCC(O)COc2cccc3ccccc23)cc1` (stereo not shown) [Compound 13, 3-{p-(6-[3-(1-Naphthyloxy)-2-Hydroxypropylamino]Heptanoylamino)-Phenyl}-Propionic Acid n-Butylamide], the “Rel. Potency (potency relative to the parent compound)” value is given as 4.5 × 10^-2.

As for `CCCCNC(=O)CCCCC(C)NCC(O)COc1cccc2ccccc12` (stereo not shown) [Compound 14, 6-[3-(1-Naphthyloxy)-2-Hydroxypropylamino]-Heptanoic Acid n-Butylamide], the “Rel. Potency (potency relative to the parent compound)” value is 9.1 × 10^-1.

For the compound `CC(=O)N[C@@H](Cc1ccc(NC(=O)CCCCC(C)NCC(O)COc2cccc3ccccc23)cc1)C(=O)NCCCO` (stereo partly drawn) [Compound 15, N^α -Acetyl-p-{6-(3-[1-Naphthyloxy]-2-Hydroxypropylamino)-Heptanoylamino}-L-Phenylalanyl-3-Hydroxypropylamide], the “Rel. Potency (potency relative to the parent compound)” value is 1.75 × 10^-1.

In the case of `CNC(=O)CNC(=O)[C@H](Cc1ccc(NC(=O)CCCCC(C)NCC(O)COc2cccc3ccccc23)cc1)NC(=O)OC(C)(C)C` (stereo partly drawn) [Compound 16, N^α -t-Butyloxycarbonyl-p-{6-(3-[1-Naphthyloxy]-2-Hydroxypropylamino)-Heptanoylamino}-L-Phenylalanyl-Glycyl-Methylamide], the “Rel. Potency (potency relative to the parent compound)” value is 7.8 × 10^-4.
